US20250179029A1, “DEUTERATED RETINOIDAL COMPOUNDS AND SYNTHESIS AND USES THEREOF” (UNIVERSITY OF MARYLAND, BALTIMORE, priority 2022, published 2025)

Experiments:
SKBR3 = test: MTT antiproliferative assay, SKBR3 non-TNBC cells; type: cell-based; conditions: mean of three independent experiments
Experimental: (§1) Compounds 2, 4, 8 and 9, as well as paclitaxel (PTX) were evaluated over a range of concentrations to examine their antiproliferative activities against two non-TNBC cell lines, MCF7 and SKBR3using the well-established 3-(4,5-dimethylthiazolyl-2)-2,5-diphenyl tetrazolium bromide (MTT) assay.^48,55,56 The parent non-deuterated VNLG-152R (Compound 2) was used as the positive control.
(§2) As presented in Table 1 below, the GI50 values of the deuterated Compounds 4, 8 and 9 against the MCF7 cell are identical to the GI50 value of the parent protio VNLG-152R (Compound 2). In contrast, the SKBR3 cell appears to be more sensitive to the deuterated compounds compared to the parent non-deuterated VNLG-152R (Compound 2). The reason for this difference is not understood at this time. The applicant hypothesizes that the enhanced diffusion of these deuterated molecules across the cell membrane of this cell line may result in enhanced intracellular concentrations and inhibition of its proliferation. Each data point is a mean of replicates from three independent experiments.

[1] = test system: MDA-MB-468 tumor xenograft; test: Anti-tumor activity in MDA-MB-468 xenograft mouse model; type: in vivo; conditions: 20 mg/kg, PO, 5 days/week, 16 days
Experimental: (§3) FIGS. 13A-13D show the anti-tumor activity of VNLG-152R, Compound 4, Compound 8, and Compound 9 in xenograft mouse models. […] In FIGS. 13B and 13D, *=p<0.0001.
(§4) After confirming the improved pharmacokinetic parameters of deuterated compounds 4, 8, and 9, the anti-tumor activity of these compounds was tested in xenograft models of MDA-MB-231 and MDA-MB-468. In both models, the mice for each group were treated with either vehicle (control) or the compounds, each at 20 mg/kg, PO, 5 days/week.

[2] = Plasma pharmacokinetics after single oral dose in female CD-1 mice; type: in vivo
Experimental: The PK study was performed by the Certified Research Organization (CRO), Aragen Life Sciences Private Limited (Aragen), Hyderabad, India. All procedures of the present study were in accordance with the guidelines provided by the Committee for the Purpose of Control and Supervision of Experiments on Animals (CPCSEA) as published in The Gazette of India, Jan. 7, 2010. CPCSEA renewal number for institute is 1125/PO/Rc/S/CPCSEA on 13Feb. 2014. Institutional Animal Ethics Committee (IAEC) approval has been taken to initiate the study (IAEC Approval Number: B-011A). The details are presented in the Supplementary Materials.
To minimize the number of mice used in the PK study using a validated LC/MS/MS analysis, both individual (discrete) (set #1: Compound 5, EM=463.2937 and set #2: […], EM=463.2937) and cassette (set #3: Compounds 2, 3, and 7; EMs=459.2686, 462.2874 and 466.3125, respectively, and set #4: Compounds 4, 8, and 9; EMs=460.2749, 464.2999 and 467.3188, respectively) dosing were used.^59,66 The four sets studied were dictated by the exact molecular masses of the compounds as indicated above and in FIG. 3.
The plasma PK profiles were obtained after single oral (PO) dosing of the compounds in mice.
In Table 2, data are presented as the mean of values obtained from three female CD-1 mice. Cmax is the maximum observed plasma concentration. Tmax is the time to maximum concentration. T1/2 is the elimination half-life. AUC represents AUC (0-∞), which is the area under the concentration-time curve from time of dosing extrapolated to infinity. MRT refers to mean residence time. The number in parentheses indicate the rank order from best (1) to worst (8).

[3] = test system: Mnk1, peIF4E, cyclin D1 in MDA-MB-231 cells; test: Western blotting of Mnk1 and downstream targets in MDA-MB-231 cells (mechanism study); type: cell-based, human; conditions: MDA-MB-231, 24 hours, FIG. 14B
Experimental: FIGS. 14A and 14B show the in vitro effects of VNLG-152R on synoviolin 1 (SYVN1) and other targets in MDA-MB-231 cells.
After confirming the anti-tumor effect of VNLG-152R, the molecular mechanism of VNLG-152R was studied, in order to help identify potential new molecular targets for treatment. Using an established procedure^70,71, a label-free proteomics analysis was conducted. MDA-MB-231 cells were treated for 24 hours with VNLG-152R in the concentrations indicated in FIGS. 14A and 14B, followed by Western blotting of whole cell lysates.

MCF7 = test: MTT antiproliferative assay, MCF7 non-TNBC cells; type: cell-based; conditions: mean of three independent experiments
Experimental: as §1, §2

[4] = test system: MDA-MB-231 tumor xenograft; test: Anti-tumor activity in MDA-MB-231 xenograft mouse model; type: in vivo; conditions: 20 mg/kg, PO, 5 days/week, 16 days
Experimental: as §3, §4

[5] = test system: Mnk1, peIF4E, eIF4E, cyclin D1, Bcl-2, Bax in MDA-MB-231 cells; test: Western blotting of Mnk1 and downstream targets in MDA-MB-231 cells; type: cell-based, human; conditions: MDA-MB-231, 5, 10 and 20 µM, 24 h, Western blot
Text: The applicant had previously reported that the antiproliferative effects of Compound 1 and our other Mnk1/2 degraders in breast cancer cells was due to degradation of Mnk1/2 with consequent depletion of peIF4E and modulation of the downstream molecular targets.^48,55,56 Thus, the deuterated analogs were further examined for their effects on the degradation of Mnk1 and the other related downstream molecular targets in both MDA-MB-231 and MDA-MB-468 TNBC cells by Western blotting analysis.
The human breast cancer cell lines, MDA-MB-231, MDA-MB-468 were procured from ATCC (Manassas, VA) and cultured in the recommended media supplemented with 10% heat-inactivated standard fetal bovine serum (FBS, GIBCO) and 1% penicillin-streptomycin (10,000 U/ml, Life Technologies) at 37° C. and 5% CO2. Primary antibodies against Mnk1, eIF4E, p-eIF4E, Cyclin D1, BCL2, BAX, β-actin, and secondary RP-conjugated anti-rabbit used in the study were procured from Cell Signaling Technology, USA. Cells were lysed with radioimmunoprecipitation assay (RIPA) buffer supplemented with 1× protease inhibitors (Roche, Indianapolis, IN, USA), phosphatase inhibitors (Thermo Scientific, Waltham, MA, USA), 1 mmol/L EDTA and 1 mmol/L PMSF (Sigma) and immunoblotting analyses were performed as described previously.^48,64
The non-deuterated VNLG-152R (Compound 2) and the vehicle, DMSO were used as positive and negative controls, respectively. Equal protein concentrations from breast cancer cells treated with the compounds at different concentration (5, 10 and 20 µM) for 24 h were separated by SDS-PAGE and Western blots probed with the respective protein antibodies. Vehicle treated cells were included as a control, and all blots were reprobed for R-actin for loading control.

[6] = test system: androgen-sensitive and castration-resistant human prostate cancer cells; conditions: androgen-sensitive and castration-resistant human prostate cancer cells in vitro; cited from earlier work
[7] = single p.o. dose 10 mg/kg, female CD-1 mice, plasma

CC1=C(/C=C/C(C)=C/C=C/C(C)=C/C(=O)Nc2ccc(F)cc2)C(C)(C)CCC1n1ccnc1 (racemic) [Compound 2, (±) 4-Imidazolyl-4(H)-(4′-fluoro(phenyl))-(E)-retinamide]
GI50 (SKBR3): 260 ± 120 nM
reduction of tumor growth [1]: 81%
clearance from systemic circulation (plasma concentration versus time profile) ([2]; single PO dosing, mice, FIGS. 12A-12C): could not be detected after 8 hours
AUC (0-∞) [2, 7]: 22764.75 ng·h/mL
MRT (mean residence time) [2, 7]: 3.02 h
T1/2 (elimination half-life) [2, 7]: 3.61 h
Tmax [2, 7]: 0.83 h
Cmax ([2]; single p.o. dose 10 mg/kg, female CD-1 mice, plasma, mean of three mice): 4651.88 ng/mL
Mnk1 level [3]: dose-dependent Mnk1 depletion
cyclin D1 level [3]: suppression
peIF4E level [3]: suppression
GI50 (MCF7): 350 ± 110 nM
reduction of tumor growth [4]: 87%
expression of Mnk1 [5]: significantly and dose-dependently reduced
expression of peIF4E [5]: significantly and dose-dependently reduced
expression of total eIF4E [5]: without noticeable effects
anti-proliferative and anti-metastatic activities [6]: potent
